Experimental data as given in patent publication US11591341B2 (ALIGOS THERAPEUTICS, INC., priority 2019, dated 2023).

System: HBV
Test: HBV-DNA Antiviral Assay Using HepG2.117 Cells (intracellular HBV DNA by qPCR)
Assay type: cell-based, hepatitis B virus (genotype D)
Conditions: Hepatitis B virus, HepG2.117
Outline: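 HepG2.117 cells (genotype D HBV, Tet-off) were induced by doxycycline withdrawal and treated for 3 days with 9 concentrations in 4-fold dilution, 2% DMSO final. Intracellular HBV DNA was measured by qPCR against a standard curve, with ATPlite viability read in parallel. EC50, EC90 and CC50 came from fits against the DMSO control.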

Row | SMILES | EC50 [µM]
1 | CC[C@@H](NC(=O)c1c2n(c(=O)n1-c1ccc(OC)cc1)CCN(C(=O)c1ccc(Br)c(Cl)c1)C2)c1ccccc1 (stereo in doubt) [Example 150, 7-(4-bromo-3-chloro-benzoyl)-2-(4-methoxyphenyl)-3-oxo-N-[rac-(1R)-1-phenylpropyl]-6,8-dihydro-5H-imidazo[1,5-a]pyrazine-1-carboxamide] | 0.1 to 0.5
2 | CC[C@H](NC(=O)c1c2n(c(=O)n1-c1ccc(OC)cc1)CCN(C(=O)c1ccc(Br)c(Cl)c1)C2)c1ccccc1 (stereo in doubt) [Example 151, 7-(4-bromo-3-chloro-benzoyl)-2-(4-methoxyphenyl)-3-oxo-N-[rac-(1S)-1-phenylpropyl]-6,8-dihydro-5H-imidazo[1,5-a]pyrazine-1-carboxamide] | 0.1 to 0.5
3 | COc1ccc(-n2c(C(=O)N[C@H](C)c3ccccc3F)c3n(c2=O)CCN(C(=O)c2ccc(Br)c(Cl)c2)C3)cc1 (stereo in doubt) [Example 161, 7-(4-bromo-3-chloro-benzoyl)-2-(4-methoxyphenyl)-3-oxo-N-[rac-(1R)-1-(2-fluorophenyl)ethyl]-6,8-dihydro-5H-imidazo[1,5-a]pyrazine-1-carboxamide] | < 0.1
4 | COc1ccc(-n2c(C(=O)N[C@@H](C)c3ccccc3F)c3n(c2=O)CCN(C(=O)c2ccc(Br)c(Cl)c2)C3)cc1 (stereo in doubt) [Example 162, 7-(4-bromo-3-chloro-benzoyl)-2-(4-methoxyphenyl)-3-oxo-N-[rac-(1S)-1-(2-fluorophenyl)ethyl]-6,8-dihydro-5H-imidazo[1,5-a]pyrazine-1-carboxamide] | 0.1 to 0.5
5 | C[C@H](NC(=O)c1c2n(c(=O)n1-c1ccc(OC3COC3)cc1)CCN(C(=O)c1ccc(Br)c(Cl)c1)C2)c1ccccc1 (stereo in doubt) [Example 169, 7-(4-bromo-3-chloro-benzoyl)-2-[4-(oxetan-3-yloxy)phenyl]-3-oxo-N-[rac-(1S)-1-phenylethyl]-6,8-dihydro-5H-imidazo[1,5-a]pyrazine-1-carboxamide] | 0.5 to 5
6 | C[C@@H](NC(=O)c1c2n(c(=O)n1-c1ccc(OC3COC3)cc1)CCN(C(=O)c1ccc(Br)c(Cl)c1)C2)c1ccccc1 (stereo in doubt) [Example 170, 7-(4-bromo-3-chloro-benzoyl)-2-[4-(oxetan-3-yloxy)phenyl]-3-oxo-N-[rac-(1R)-1-phenylethyl]-6,8-dihydro-5H-imidazo[1,5-a]pyrazine-1-carboxamide] | 0.1 to 0.5
7 | O=C(c1ccc(Br)c(Cl)c1)N1CCn2c(c3n(c2=O)C[C@H](O)CN(Cc2ccccc2)C3=O)C1 (stereo in doubt) [Example 174, rac-(11R)-13-benzyl-4-(4-bromo-3-chloro-benzoyl)-11-hydroxy-4,7,9,13-tetrazatricyclo[7.5.0.0^2,7]tetradec-1-ene-8.14-dione] | 0.5 to 5
8 | O=C(c1ccc(Br)c(Cl)c1)N1CCn2c(c3n(c2=O)C[C@@H](O)CN(Cc2ccccc2)C3=O)C1 (stereo in doubt) [Example 175, rac-(11S)-13-benzyl-4-(4-bromo-3-chloro-benzoyl)-11-hydroxy-4,7,9,13-tetrazatricyclo[7.5.0.0^2,7]tetradec-1-ene-8.14-dione] | 0.5 to 5
9 | C[C@@H](NC(=O)c1c2n(c(=O)n1C1CC1)CCN(C(=O)c1ccc(Br)c(Cl)c1)C2)c1ccccc1 (stereo in doubt) [Example 189, 7-(4-bromo-3-chloro-benzoyl)-2-cyclopropyl-3-oxo-N-[rac-(1R)-1-phenylethyl]-6,8-dihydro-5H-imidazo[1,5-a]pyrazine-1-carboxamide] | 0.5 to 5
10 | C[C@H](NC(=O)c1c2n(c(=O)n1C1CC1)CCN(C(=O)c1ccc(Br)c(Cl)c1)C2)c1ccccc1 (stereo in doubt) [Example 190, 7-(4-bromo-3-chloro-benzoyl)-2-cyclopropyl-3-oxo-N-[rac-(1S)-1-phenylethyl]-6,8-dihydro-5H-imidazo[1,5-a]pyrazine-1-carboxamide] | 0.5 to 5
11 | COc1ccc(CN2C[C@@H](O)Cn3c(c4n(c3=O)CCN(C(=O)c3ccc(Br)c(Cl)c3)C4)C2=O)cc1 (stereo in doubt) [Example 193, rac-(11R)-4-(4-bromo-3-chloro-benzoyl)-11-hydroxy-13-[(4-methoxyphenyl)methyl]-4,7,9,13-tetrazatricyclo[7.5.0.0^2,7]tetradec-1-ene-8,14-dione] | 0.1 to 0.5
12 | COc1ccc(CN2C[C@H](O)Cn3c(c4n(c3=O)CCN(C(=O)c3ccc(Br)c(Cl)c3)C4)C2=O)cc1 (stereo in doubt) [Example 194, rac-(11S)-4-(4-bromo-3-chloro-benzoyl)-11-hydroxy-13-[(4-methoxyphenyl)methyl]-4,7,9,13-tetrazatricyclo[7.5.0.0^2,7]tetradec-1-ene-8,14-dione] | 0.1 to 0.5
13 | O=C(c1ccc(Br)c(Cl)c1)N1CCn2c(c3n(c2=O)C[C@H](F)CN(Cc2ccccc2)C3=O)C1 (stereo in doubt) [Example 200, rac-(11R)-13-benzyl-4-(4-bromo-3-chloro-benzoyl)-11-fluoro-4,7,9,13-tetrazatricyclo[7.5.0.0^2,7]tetradec-1-ene-8,14-dione] | 0.1 to 0.5
14 | O=C(c1ccc(Br)c(Cl)c1)N1CCn2c(c3n(c2=O)C[C@@H](F)CN(Cc2ccccc2)C3=O)C1 (stereo in doubt) [Example 201, rac-(11S)-13-benzyl-4-(4-bromo-3-chloro-benzoyl)-11-fluoro-4,7,9,13-tetrazatricyclo[7.5.0.0^2,7]tetradec-1-ene-8,14-dione] | 0.1 to 0.5
15 | C[C@H](c1ccccc1)N1C[C@@H](O)Cn2c(c3n(c2=O)CCN(C(=O)c2ccc(Br)c(Cl)c2)C3)C1=O (stereo in doubt) [Example 202, (11RS)-4-(4-bromo-3-chloro-benzoyl)-11-hydroxy-13-[(1R)-1-phenylethyl]-4,7,9,13-tetrazatricyclo[7.5.0.0^2,7]tetradec-1-ene-8.14-dione] | 0.1 to 0.5
16 | C[C@H](c1ccccc1)N1C[C@H](O)Cn2c(c3n(c2=O)CCN(C(=O)c2ccc(Br)c(Cl)c2)C3)C1=O (stereo in doubt) [Example 203, (11SR)-4-(4-bromo-3-chloro-benzoyl)-11-hydroxy-13-[(1R)-1-phenylethyl]-4,7,9,13-tetrazatricyclo[7.5.0.0^2,7]tetradec-1-ene-8,14-dione] | 0.1 to 0.5
17 | COc1ccc(-n2c(C(=O)N[C@H](c3ccccc3)C(F)(F)F)c3n(c2=O)CCN(C(=O)c2ccc(Br)c(Cl)c2)C3)cc1 (stereo in doubt) [Example 208, 7-(4-bromo-3-chloro-benzoyl)-2-(4-methoxyphenyl)-3-oxo-N-[rac-(1R)-2,2,2-trifluoro-1-phenyl-ethyl]-6,8-dihydro-5H-imidazo[1,5-a]pyrazine-1-carboxamide] | 0.1 to 0.5
18 | COc1ccc(-n2c(C(=O)N[C@@H](c3ccccc3)C(F)(F)F)c3n(c2=O)CCN(C(=O)c2ccc(Br)c(Cl)c2)C3)cc1 (stereo in doubt) [Example 209, 7-(4-bromo-3-chloro-benozyl)-2-(4-methoxyphenyl)-3-oxo-N-[rac-(1S)-2,2,2-trifluoro-1-phenyl-ethyl]-6,8-dihydro-5H-imidazo[1,5-a]pyrazine-1-carboxamide] | 0.1 to 0.5
